Test [1] concerns Staphylococcus aureus. In words: Antibacterial activity against Staphylococcus aureus NRS70 measured after 16 to 20 hrs in absence of 2% NaCl by microdilution broth method.
Test [2] deals with Staphylococcus aureus. In words: Potentiation of oxacillin induced antibacterial activity against Staphylococcus aureus NRS70 assessed as oxacillin MIC at 20 uM measured after 16 to 20 hrs in presence of 2% NaCl by microdilution broth method (reference value: 64 mg/L). The format is functional. Background: Broth dilution looks for growth in wells or tubes with falling amounts of substance.

Values after ≈ are worked out from the molar mass of the structure shown.

For orientation: MIC means the smallest concentration in the dilution series that meets the test's criterion for growth inhibition. Consider `CS(=O)(=O)/C(C#N)=C/c1cc(-c2cnc3ccccc3n2)ccc1F`, for which the MIC in the test with Staphylococcus aureus [1] is at least 64 µg/mL; in the test with Staphylococcus aureus [2], 64 µg/mL.

Turning to `CC(C)NC(=O)c1ccc(Cc2ccc(F)c(/C=C(\C#N)S(C)(=O)=O)c2)cc1`, the MIC was at least 64 µg/mL against Staphylococcus aureus [1] and 64 µg/mL with Staphylococcus aureus [2].

For `COc1ccc(Cc2ccc(Cl)c(Cl)c2)cc1/C=C(\C#N)S(C)(=O)=O`, the MIC with Staphylococcus aureus [1] stood at 32 µg/mL (≈ 80.7 µM); in the test with Staphylococcus aureus [2] it was 4 µg/mL.

For `N#C/C(=C\c1cc(-c2ccc(Cl)c(Cl)c2)ccc1F)S(=O)(=O)c1ccccn1`, the figures for the minimal inhibitory concentration (MIC) against Staphylococcus aureus [1] and with Staphylococcus aureus [2] were 32 µg/mL (≈ 73.9 µM) and 16 µg/mL, respectively.

With `COc1ccc(Oc2cccc(C=C(C#N)C#N)c2)cc1`, the values for the MIC in the test with Staphylococcus aureus [1] and with Staphylococcus aureus [2] were at least 64 µg/mL and 64 µg/mL, respectively.

As for `CS(=O)(=O)/C(C#N)=C/c1cc(Cc2cccc(C(F)(F)F)c2)ccc1F`, the MIC is at least 64 µg/mL against Staphylococcus aureus [1] and 64 µg/mL in the test with Staphylococcus aureus [2].

Regarding `N#C/C(=C\c1cccc(Oc2ccc(Cl)c(Cl)c2)c1)C(=O)O`, the figures for the MIC with Staphylococcus aureus [1] and in the test with Staphylococcus aureus [2] were at least 64 µg/mL and 64 µg/mL, respectively.

As for `N#CC(C#N)=Cc1ccc(Oc2ccc(Cl)cc2)cc1`, the MIC stood at 32 µg/mL (≈ 114 µM) in the test on Staphylococcus aureus [1] and 64 µg/mL in the test with Staphylococcus aureus [2].

On to `Cc1ccc(S(=O)(=O)Nc2cccc(C=C(C#N)C#N)c2)cc1`, for which the MIC in the test on Staphylococcus aureus [1] was at least 64 µg/mL; in the test on Staphylococcus aureus [2], 64 µg/mL.

For `CS(=O)(=O)/C(C#N)=C/c1cccc(Oc2ccc(Cl)c(Cl)c2)c1`, the MIC in the test with Staphylococcus aureus [1] came out at 16 µg/mL (≈ 43.4 µM); in the test on Staphylococcus aureus [2], 64 µg/mL.

With `N#C/C(=C\c1cccc(Oc2ccc(Cl)c(Cl)c2)c1)c1ccncc1`, the MIC is at least 64 µg/mL in the test with Staphylococcus aureus [1] and 64 µg/mL with Staphylococcus aureus [2].

With `CS(=O)(=O)/C(C#N)=C/c1cc(Cc2ccc(SC(F)(F)F)cc2)ccc1F`, the MIC in the test with Staphylococcus aureus [1] was at least 64 µg/mL; in the test with Staphylococcus aureus [2], 64 µg/mL.

In the case of `N#CC(C#N)=Cc1cccc(Oc2ccccc2)c1`, the minimum inhibitory concentration (MIC) against Staphylococcus aureus [1] came to 32 µg/mL (≈ 130 µM); in the test with Staphylococcus aureus [2], 64 µg/mL.

As to `CS(=O)(=O)/C(C#N)=C/c1cc(-c2ccnc3ccccc23)ccc1F`, the MIC against Staphylococcus aureus [1] is at least 64 µg/mL; in the test on Staphylococcus aureus [2], 64 µg/mL.

As to `CS(=O)(=O)/C(C#N)=C/c1cccc(Cc2ccc(Cl)c(Cl)c2)c1F`, the MIC is 8 µg/mL (≈ 20.8 µM) against Staphylococcus aureus [1] and 2 µg/mL in the test on Staphylococcus aureus [2].

Consider `N#CC(C#N)=Cc1cccc(Oc2ccc(F)cc2)c1`, for which the MIC against Staphylococcus aureus [1] was at least 64 µg/mL; in the test on Staphylococcus aureus [2] it was 64 µg/mL.

As to `N#CC(C#N)=Cc1cccc(Cc2cc(F)c(F)cc2F)c1`, the minimal inhibitory concentration (MIC) in the test on Staphylococcus aureus [1] is at least 64 µg/mL; in the test on Staphylococcus aureus [2], 64 µg/mL.

Consider `N#CC(C#N)=Cc1cccc(C(=O)Nc2ccc(Cl)c(Cl)c2)c1`, for which the MIC in the test on Staphylococcus aureus [1] is at least 64 µg/mL; in the test on Staphylococcus aureus [2], 16 µg/mL.

As to `N#CC(C#N)=Cc1cccc(Oc2cccc(C(F)(F)F)c2)c1`, the MIC in the test on Staphylococcus aureus [1] was determined as 32 µg/mL (≈ 102 µM); in the test with Staphylococcus aureus [2] it was 64 µg/mL.

As to `CS(=O)(=O)/C(C#N)=C/c1cc(Cc2ccc(OC(F)(F)F)cc2)ccc1F`, the minimum inhibitory concentration (MIC) with Staphylococcus aureus [1] is at least 64 µg/mL; in the test with Staphylococcus aureus [2], 64 µg/mL.

`Cc1ccc(Oc2cccc(C=C(C#N)C#N)c2)cc1`: the minimal inhibitory concentration (MIC) was at least 64 µg/mL in the test with Staphylococcus aureus [1] and 64 µg/mL with Staphylococcus aureus [2].

Take `N#CC(C#N)Cc1cccc(Oc2ccc(Cl)c(Cl)c2)c1`: the minimum inhibitory concentration (MIC) in the test on Staphylococcus aureus [1] was 32 µg/mL (≈ 101 µM); in the test on Staphylococcus aureus [2], 64 µg/mL.

Take `N#C/C(=C\c1cccc(Oc2ccc(Cl)c(Cl)c2)c1)c1nc2ccccc2s1`: the MIC with Staphylococcus aureus [1] was at least 64 µg/mL; in the test with Staphylococcus aureus [2] it was 64 µg/mL.

Regarding `N#C/C(=C\c1cccc(Oc2ccc(Cl)c(Cl)c2)c1)c1ccccn1`, the results for the MIC with Staphylococcus aureus [1] and in the test on Staphylococcus aureus [2] were at least 64 µg/mL and 64 µg/mL, respectively.

With `N#C/C(=C\c1cc(Cc2ccc(Cl)c(Cl)c2)ccc1F)C(=O)C1CC1`, the MIC in the test with Staphylococcus aureus [1] is at least 64 µg/mL; in the test on Staphylococcus aureus [2], 1 µg/mL.

For the compound `N#CC(C#N)=Cc1cccc(Cc2ccc(Cl)c(Cl)c2)c1F`, the minimal inhibitory concentration (MIC) in the test on Staphylococcus aureus [1] turned out to be 8 µg/mL (≈ 24.2 µM); with Staphylococcus aureus [2] it was 2 µg/mL.

As for `Cc1ccc(C(=O)/C(C#N)=C/c2cccc(Oc3ccc(Cl)c(Cl)c3)c2)cc1`, the MIC against Staphylococcus aureus [1] was at least 64 µg/mL; in the test on Staphylococcus aureus [2] it was 64 µg/mL.

Regarding `CCOc1ccc(Cc2ccc(Cl)c(Cl)c2)cc1/C=C(\C#N)S(C)(=O)=O`, the MIC against Staphylococcus aureus [1] is at least 64 µg/mL; in the test on Staphylococcus aureus [2] it was 16 µg/mL.

Consider `N#CC(C#N)=Cc1cccc(Oc2ccc(Cl)c(Cl)c2)c1`, for which the minimal inhibitory concentration (MIC) is 32 µg/mL (≈ 102 µM) in the test on Staphylococcus aureus [1] and 64 µg/mL in the test with Staphylococcus aureus [2].

With `CC(=C(C#N)C#N)c1cccc(Cc2ccc(Cl)c(Cl)c2)c1`, the minimal inhibitory concentration (MIC) in the test with Staphylococcus aureus [1] was at least 64 µg/mL; in the test with Staphylococcus aureus [2], 64 µg/mL.

For `CS(=O)(=O)/C(C#N)=C/c1cc(Cc2ccc(F)c(F)c2)ccc1F`, the values for the minimum inhibitory concentration (MIC) in the test with Staphylococcus aureus [1] and in the test with Staphylococcus aureus [2] were at least 64 µg/mL and 64 µg/mL, respectively.

With `CS(=O)(=O)/C(C#N)=C/c1cc(Cc2ccc(C(F)(F)F)cc2)ccc1F`, the MIC with Staphylococcus aureus [1] came out at 32 µg/mL (≈ 83.5 µM); in the test with Staphylococcus aureus [2], 64 µg/mL.

`COc1c(/C=C(\C#N)S(C)(=O)=O)cccc1Cc1ccc(Cl)c(Cl)c1`: the MIC in the test with Staphylococcus aureus [1] turned out to be 32 µg/mL (≈ 80.7 µM); in the test with Staphylococcus aureus [2], 8 µg/mL.

As for `N#CC(C#N)=Cc1cccc(Cc2ccc(Cl)c(F)c2)c1`, the results for the minimum inhibitory concentration (MIC) against Staphylococcus aureus [1] and in the test on Staphylococcus aureus [2] were at least 64 µg/mL and 64 µg/mL, respectively.

Consider `N#CC(C#N)=Cc1cccc(Oc2ccc(Cl)nn2)c1`, for which the MIC was at least 64 µg/mL with Staphylococcus aureus [1] and 64 µg/mL in the test on Staphylococcus aureus [2].

`N#C/C(=C\c1cccc(Oc2ccc(Cl)c(Cl)c2)c1)c1cccs1`: the MIC against Staphylococcus aureus [1] was at least 64 µg/mL; with Staphylococcus aureus [2], 64 µg/mL.

Turning to `CS(=O)(=O)/C(C#N)=C/c1cc(Cc2ccc(F)c(C(F)(F)F)c2)ccc1F`, the MIC was at least 64 µg/mL in the test on Staphylococcus aureus [1] and 64 µg/mL in the test with Staphylococcus aureus [2].

For the compound `N#CC(C#N)=Cc1cccc(Oc2cc(Cl)cc(Cl)c2)c1`, the MIC was 16 µg/mL (≈ 50.8 µM) with Staphylococcus aureus [1] and 64 µg/mL with Staphylococcus aureus [2].

With `CS(=O)(=O)/C(C#N)=C/c1cc(-c2ccc3ccccc3n2)ccc1F`, the minimal inhibitory concentration (MIC) in the test on Staphylococcus aureus [1] was at least 64 µg/mL; in the test with Staphylococcus aureus [2] it was 64 µg/mL.

In the case of `N#CC(C#N)=Cc1cccc(Sc2ccc(Cl)c(Cl)c2)c1`, the values for the minimal inhibitory concentration (MIC) against Staphylococcus aureus [1] and with Staphylococcus aureus [2] were at least 64 µg/mL and 64 µg/mL, respectively.

For `N#CC(C#N)=Cc1cccc(S(=O)(=O)c2ccc(Cl)c(Cl)c2)c1`, the MIC in the test on Staphylococcus aureus [1] was 16 µg/mL (≈ 44 µM); with Staphylococcus aureus [2] it was 64 µg/mL.

As to `COc1ccc(OC)c(Cc2cccc(C=C(C#N)C#N)c2)c1`, the minimum inhibitory concentration (MIC) was at least 64 µg/mL with Staphylococcus aureus [1] and 64 µg/mL in the test on Staphylococcus aureus [2].

Consider `COc1ccc(Cc2ccc(Cl)c(Cl)c2)cc1C=C(C#N)C#N`, for which the minimal inhibitory concentration (MIC) was at least 64 µg/mL with Staphylococcus aureus [1] and 4 µg/mL in the test with Staphylococcus aureus [2].

As to `CS(=O)(=O)/C(C#N)=C/c1cc(Cc2ccc(C(F)(F)F)c(F)c2)ccc1F`, the MIC stood at 32 µg/mL (≈ 79.7 µM) against Staphylococcus aureus [1] and 64 µg/mL in the test with Staphylococcus aureus [2].

On to `N#C/C(=C\c1cccc(Oc2ccc(Cl)c(Cl)c2)c1)C(N)=O`, for which the minimal inhibitory concentration (MIC) against Staphylococcus aureus [1] was found to be 8 µg/mL (≈ 24 µM); in the test with Staphylococcus aureus [2], 64 µg/mL.

As to `N#CC(C#N)=Cc1cccc(Oc2ncc(Cl)c(Cl)n2)c1`, the MIC against Staphylococcus aureus [1] was at least 64 µg/mL; with Staphylococcus aureus [2] it was 64 µg/mL.

As to `COc1ccc(Cc2ccc(OC(F)(F)F)c(/C=C(\C#N)S(C)(=O)=O)c2)cc1OC`, the minimal inhibitory concentration (MIC) against Staphylococcus aureus [1] was at least 64 µg/mL; in the test with Staphylococcus aureus [2], 64 µg/mL.

Turning to `CS(=O)(=O)/C(C#N)=C/c1cc(Cc2ccc(Cl)c(Cl)c2)ccc1N1CCOCC1`, the MIC in the test on Staphylococcus aureus [1] was at least 64 µg/mL; in the test with Staphylococcus aureus [2], 16 µg/mL.

In the case of `CS(=O)(=O)/C(C#N)=C/c1cc(Cc2ccc3c(c2)OCO3)ccc1OC(F)(F)F`, the results for the MIC with Staphylococcus aureus [1] and in the test on Staphylococcus aureus [2] were 32 µg/mL (≈ 75.2 µM) and 64 µg/mL, respectively.

With `N#CC(C#N)=Cc1cc(Cc2ccc(Cl)c(Cl)c2)ccc1F`, the MIC against Staphylococcus aureus [1] was 8 µg/mL (≈ 24.2 µM); in the test with Staphylococcus aureus [2], 4 µg/mL.

As to `CS(=O)(=O)/C(C#N)=C/c1cc(Cc2cccc(OC(F)(F)F)c2)ccc1F`, the values for the minimum inhibitory concentration (MIC) with Staphylococcus aureus [1] and in the test with Staphylococcus aureus [2] were at least 64 µg/mL and 64 µg/mL, respectively.

`N#CC(C#N)=Cc1cccc(Oc2ccc(Cl)cc2)c1`: the minimal inhibitory concentration (MIC) against Staphylococcus aureus [1] is 32 µg/mL (≈ 114 µM); with Staphylococcus aureus [2], 64 µg/mL.

For the compound `N#CC(C#N)=Cc1cccc(Cc2ccc(Cl)c(Cl)c2)c1`, the minimum inhibitory concentration (MIC) was at least 64 µg/mL against Staphylococcus aureus [1] and 64 µg/mL in the test with Staphylococcus aureus [2].

For the compound `COc1ccc(Cc2ccc(Cl)c(Cl)c2)c(OC)c1/C=C(\C#N)S(C)(=O)=O`, the MIC was 16 µg/mL (≈ 37.5 µM) against Staphylococcus aureus [1] and 64 µg/mL in the test on Staphylococcus aureus [2].

On to `COc1ccc(Cc2ccc(F)c(/C=C(\C#N)S(C)(=O)=O)c2)cc1C(F)(F)F`, for which the values for the MIC against Staphylococcus aureus [1] and with Staphylococcus aureus [2] were at least 64 µg/mL and 64 µg/mL, respectively.

Consider `N#CC(C#N)=Cc1cccc(Cc2ccc(F)c(Cl)c2)c1`, for which the minimal inhibitory concentration (MIC) against Staphylococcus aureus [1] is at least 64 µg/mL; in the test on Staphylococcus aureus [2], 64 µg/mL.

With `COc1ccc(C=C(C#N)C#N)cc1Oc1ccc(Cl)c(Cl)c1`, the MIC against Staphylococcus aureus [1] was at least 64 µg/mL; with Staphylococcus aureus [2], 64 µg/mL.

Regarding `N#CC(C#N)=Cc1cccc(Cc2cccc(Cl)c2)c1`, the MIC is at least 64 µg/mL in the test with Staphylococcus aureus [1] and 64 µg/mL in the test with Staphylococcus aureus [2].

For the compound `CS(=O)(=O)/C(C#N)=C/c1cccc(-c2ccc(Cl)c(Cl)c2)n1`, the results for the MIC against Staphylococcus aureus [1] and in the test on Staphylococcus aureus [2] were 32 µg/mL (≈ 90.6 µM) and 16 µg/mL, respectively.

Source of the values: ChEMBL document CHEMBL4304792, “Cinnamonitrile Adjuvants Restore Susceptibility to β-Lactams against Methicillin-Resistant Staphylococcus aureus” (ACS Med Chem Lett, 2019).
